Tested on: HBV viral production from HepAD38 cells
Assay: Activity of test compounds on viral production from HepAD38 cells (viral load by qPCR of HBV core sequence in supernatant)
Type: cell-based
Conditions: Hepatitis B virus, 120 h, 5 days incubation, HBV DNA in supernatant by qPCR, top concentration 10 μM, read-out: Viral Load EC50 Activity range
Method: Assay Measuring Activity of Test Compounds on Viral Production from HepAD38 Cells
HepAD38 cells grown in a T-150 flask (Corning, cat #: 430825) with Growth Medium (DMEM/F12 (1:1) (Hyclone, cat #: SH30023.02), 1×Pen/Strep (Invitrogen, cat #: 15140-122), 10% FBS (Tissue Culture Biologics, cat #: 101), 250 μg/mL G418 (Alfa Aesar, cat #: J62671), 1 μg/mL Tetracycline (Teknova, cat #: T3320)) were detached with 0.25% trypsin-EDTA (Invitrogen, cat #: 25200-056). Tetracycline-free treatment medium (15 mL DMEM/F12 (1:1) 1× Pen/step, with 2% FBS, Tet-system approved (Clontech, cat #: 631106) were then added to mix, transferred into a 50 ml conical tube (Falcon, cat #: 21008-918) and spun at 1300 rpm for 5 min. Pelleted cells were then re-suspended/washed with 50 mL of 1×DPBS (Invitrogen, cat #: 14190-136) 2 times and 50 mL treatment medium twice. HepAD38 cells were then re-suspended with 10 mL of treatment medium, syringed and counted. Wells of 96-well clear bottom TC plate (Corning, cat #: 3904) were seeded at 50,000 cells/well in 180 μL of treatment medium, and 20 μL of either 10% DMSO (Sigma, cat #: D4540) as controls or a 10× solution of test compounds in 10% DMSO in treatment media was added for a final compound concentration starting at 10 μM, and plates were incubated in 5% CO2 incubator at 37° C. for 5 days.
Subsequently viral load production was assayed by quantitative PCR (qPCR) of the HBV core sequence. PCR reaction mixture containing forward primers HBV-f 5′-CTGTGCCTTGGGTGGCTTT-3′, which is SEQ ID NO 1, (IDT DNA), Reverse primers HBV-r 5′-[…]-3′, which is SEQ ID NO 2 (IDT DNA), Fluorescent TaqMan™ Probes HBV-probe 5′-FAM/AGCTCCAAA/ZEN/[…]/3IABkFQ-3′ (IDT DNA), which is SEQ ID NO 3, 10 μL/well of PerfeCTa® qPCR ToughMix® (Quanta Biosciences, Cat #: 95114-05K), and 6 µL/well of DEPC water (Alfa Aesar, cat #: J62087) was prepared. Four μL of supernatant was added to 16 μL of the reaction mixture in a qPCR plate (Applied Biosytems, Cat #: 4309849), sealed with a film (Applied Biosystems, Cat #: 4311971), centrifuged for a few seconds, and subsequently run on an Applied Biosystems VIIA7. The PCR mixture was incubated at 45° C. for 5 min, then 95° C. for 10 min, followed by 40 cycles of 10 seconds at 95° C. and 20 seconds at 60° C. Viral load was quantified against known HBV DNA standards by using ViiA™ 7 Software. Viral load in the supernatant from wells with treated cells were compared against viral load in supernatant from DMSO control wells (≥3 per plate). Cell viability assay was performed with CellTiter-Glo Luminescent Cell Viability Assay (Promega, cat #: G7573) with modification. Mixed appropriate amount of CellTiter-Glo (CTG) 1×DPBS in a 1:1 ratio, added 100 uL of the mixture to each well followed completely removal of all supernatant in each well without touching cell surface. Incubated the plate at room temperature for 10 min on an orbital shaker, and then read the plate with a plate reader (TECAN M1000 or Envision). EC50 or CC50 values were calculated through curve-fitting of the four-parameter nonlinear-logistic-regression model (GraphPad Prism or Dotmatics). CC50 values were all >10 μM.

SMILES | EC50
NC(=O)CN1C(C(=O)Nc2ccc(F)c(Cl)c2)CC(c2nccs2)NS1(=O)=O (centres unmarked) | 1000 to 5000 nM
Cc1cnc(C2CC(C(=O)Nc3ccc(F)c(Cl)c3)N(C)S(=O)(=O)N2)s1 (centres unmarked) | < 1000 nM
Cc1cnc([C@H]2C[C@@H](C(=O)Nc3ccc(F)c(Cl)c3)N(C)S(=O)(=O)N2)s1 | < 1000 nM
Cc1cnc([C@@H]2C[C@H](C(=O)Nc3ccc(F)c(Cl)c3)N(C)S(=O)(=O)N2)s1 | > 5000 nM
CN1C(C(=O)Nc2ccc(F)c(Cl)c2)CC(c2ncc(-c3ccccc3)s2)NS1(=O)=O (centres unmarked) | < 1000 nM
CN1[C@H](C(=O)Nc2ccc(F)c(Cl)c2)C[C@H](c2ncc(-c3ccccc3)s2)NS1(=O)=O | < 1000 nM
CN1[C@@H](C(=O)Nc2ccc(F)c(Cl)c2)C[C@@H](c2ncc(-c3ccccc3)s2)NS1(=O)=O | 1000 to 5000 nM
CN1C(C(=O)Nc2ccc(F)cc2)CC(c2cccs2)NS1(=O)=O (racemic) [HBV-CSU-007, Cis-N-(4-Fluorophenyl)-2-methyl-5-(thiophen-2-yl)-1,2,6-thiadiazinane-3-carboxamide 1,1-dioxide] | < 1000 nM
CN1C(C(=O)Nc2cccc(Cl)c2)CC(c2cccs2)NS1(=O)=O (racemic) [HBV-CSU-010, Cis-N-(3-chlorophenyl)-2-methyl-5-(thiophen-2-yl)-1,2,6-thiadiazinane-3-carboxamide 1,1-dioxide] | < 1000 nM
Cc1cccc(NC(=O)C2CC(c3cccs3)NS(=O)(=O)N2C)c1 (racemic) [HBV-CSU-013, Cis-2-Methyl-5-(thiophen-2-yl)-N-(m-tolyl)-1,2,6-thiadiazinane-3-carboxamide 1,1-dioxide] | < 1000 nM
CN1C(C(=O)Nc2ccc(F)c(Br)c2)CC(c2cccs2)NS1(=O)=O (racemic) [HBV-CSU-016, Cis-N-(3-Bromo-4-fluorophenyl)-2-methyl-5-(thiophen-2-yl)-1,2,6-thiadiazinane-3-carboxamide 1,1-dioxide] | < 1000 nM
CN1C(C(=O)Nc2cccc(C#N)c2)CC(c2cccs2)NS1(=O)=O (racemic) [HBV-CSU-020, Cis-N-(3-cyanophenyl)-2-methyl-5-(thiophen-2-yl)-1,2,6-thiadiazinane-3-carboxamide 1,1-dioxide] | < 1000 nM
CCN1C(C(=O)Nc2ccc(F)c(Cl)c2)CC(c2cccs2)NS1(=O)=O (racemic) [HBV-CSU-024, Cis-N-(3-chloro-4-fluorophenyl)-2-ethyl-5-(thiophen-2-yl)-1,2,6-thiadiazinane-3-carboxamide 1,1-dioxide] | < 1000 nM
COCCN1C(C(=O)Nc2ccc(F)c(Cl)c2)CC(c2cccs2)NS1(=O)=O (racemic) [HBV-CSU-025, Cis-N-(3-chloro-4-fluorophenyl)-2-(2-methoxyethyl)-5-(thiophen-2-yl)-1,2,6-thiadiazinane-3-carboxamide 1,1-dioxide] | < 1000 nM
CN1C(C(=O)Nc2ccc(F)c(Cl)c2)CC(c2nccs2)NS1(=O)=O (racemic) [HBV-CSU-027, Cis-N-(3-chloro-4-fluorophenyl)-2-methyl-5-(thiazol-2-yl)-1,2,6-thiadiazinane-3-carboxamide 1,1-dioxide] | < 1000 nM
CN1C(C(=O)Nc2ccc(F)c(Cl)c2)CC(c2ccccn2)NS1(=O)=O (racemic) [HBV-CSU-031, Cis-N-(3-Chloro-4-fluorophenyl)-2-methyl-5-(pyridin-2-yl)-1,2,6-thiadiazinane-3-carboxamide 1,1-dioxide] | < 1000 nM
CN1C(C(=O)Nc2cc(F)c(F)c(F)c2)CC(c2cccs2)NS1(=O)=O (racemic) [HBV-CSU-036, Cis-2-Methyl-5-(thiophen-2-yl)-N-(3,4,5-trifluorophenyl)-1,2,6-thiadiazinane-3-carboxamide 1,1-dioxide] | < 1000 nM
CN1C(C(=O)Nc2ccc(F)c(C#N)c2)CC(c2cccs2)NS1(=O)=O (racemic) [HBV-CSU-045, Cis-N-(3-cyano-4-fluorophenyl)-2-methyl-5-(thiophen-2-yl)-1,2,6-thiadiazinane-3-carboxamide 1,1-dioxide] | < 1000 nM
COCCN1C(C(=O)Nc2ccc(F)c(Cl)c2)CC(c2nccs2)NS1(=O)=O (racemic) [HBV-CSU-058, Cis-N-(3-chloro-4-fluorophenyl)-2-(2-methoxyethyl)-5-(thiazol-2-yl)-1,2,6-thiadiazinane-3-carboxamide 1,1-dioxide] | < 1000 nM
COCCN1C(C(=O)Nc2ccc(F)c(Br)c2)CC(c2nccs2)NS1(=O)=O (racemic) [HBV-CSU-059, Cis-N-(3-bromo-4-fluorophenyl)-2-(2-methoxyethyl)-5-(thiazol-2-yl)-1,2,6-thiadiazinane-3-carboxamide 1,1-dioxide] | < 1000 nM
CC(C)(C)OCCN1C(C(=O)Nc2ccc(F)c(Cl)c2)CC(c2nccs2)NS1(=O)=O (racemic) [HBV-CSU-071, Cis-2-(2-(tert-Butoxy)ethyl)-N-(3-chloro-4-fluorophenyl)-5-(thiazol-2-yl)-1,2,6-thiadiazinane-3-carboxamide 1,1-dioxide] | 1000 to 5000 nM
O=C(Nc1ccc(F)c(Cl)c1)C1CC(c2nccs2)NS(=O)(=O)N1CCOC(F)(F)F (racemic) [HBV-CSU-072, Cis-N-(3-Chloro-4-fluorophenyl)-5-(thiazol-2-yl)-2-(2-(trifluoromethoxy)ethyl)-1,2,6-thiadiazinane-3-carboxamide 1,1-dioxide] | < 1000 nM
CS(=O)(=O)CCN1C(C(=O)Nc2ccc(F)c(Cl)c2)CC(c2nccs2)NS1(=O)=O (racemic) [HBV-CSU-073, Cis-N-(3-Chloro-4-fluorophenyl)-2-(2-(methylsulfonyl)ethyl)-5-(thiazol-2-yl)-1,2,6-thiadiazinane-3-carboxamide 1,1-dioxide] | > 5000 nM
CN(C)CCN1C(C(=O)Nc2ccc(F)c(Cl)c2)CC(c2nccs2)NS1(=O)=O (racemic) [HBV-CSU-074, Cis-N-(3-Chloro-4-fluorophenyl)-2-(2-(dimethylamino)ethyl)-5-(thiazol-2-yl)-1,2,6-thiadiazinane-3-carboxamide 1,1-dioxide] | > 5000 nM
O=C(Nc1ccc(F)c(Cl)c1)C1CC(c2nccs2)NS(=O)(=O)N1CCCO (racemic) [HBV-CSU-078, Cis-N-(3-Chloro-4-fluorophenyl)-2-(3-hydroxypropyl)-5-(thiazol-2-yl)-1,2,6-thiadiazinane-3-carboxamide 1,1-dioxide] | 1000 to 5000 nM
O=C(Nc1ccc(F)c(Cl)c1)C1CC(c2nccs2)NS(=O)(=O)N1CC1CCCO1 (racemic) [HBV-CSU-079-Rac-A, Cis-N-(3-Chloro-4-fluorophenyl)-2-((tetrahydrofuran-2-yl)methyl)-5-(thiazol-2-yl)-1,2,6-thiadiazinane-3-carboxamide 1,1-dioxide] | < 1000 nM
O=C(Nc1ccc(F)c(Cl)c1)C1CC(c2nccs2)NS(=O)(=O)N1CCN1CCOCC1 (racemic) [HBV-CSU-082, Cis-N-(3-Chloro-4-fluorophenyl)-2-(2-morpholinoethyl)-5-(thiazol-2-yl)-1,2,6-thiadiazinane-3-carboxamide 1,1-dioxide] | > 5000 nM
COC(C)(C)CCN1C(C(=O)Nc2ccc(F)c(Cl)c2)CC(c2nccs2)NS1(=O)=O (racemic) [HBV-CSU-083, Cis-N-(3-Chloro-4-fluorophenyl)-2-(3-methoxy-3-methylbutyl)-5-(thiazol-2-yl)-1,2,6-thiadiazinane-3-carboxamide 1,1-dioxide] | > 5000 nM
O=C(Nc1ccc(F)c(Cl)c1)C1CC(c2nccs2)NS(=O)(=O)N1CCc1c[nH]nn1 (racemic) [HBV-CSU-092, Cis-2-(2-(1H-1,2,3-Triazol-4-yl)ethyl)-N-(3-chloro-4-fluorophenyl)-5-(thiazol-2-yl)-1,2,6-thiadiazinane-3-carboxamide 1,1-dioxide] | 1000 to 5000 nM

From US11078170B2 (Assembly Biosciences, Inc., priority 2017, dated 2021)
